pIC50: −log10 of the molar value. Counter-ions that a name gives are not always drawn. Like-named read-outs stand apart in the source and are kept apart here.

From patent US9145354B2, “Pharmaceutical compounds” (priority 2011, dated 2015) come the findings set out here.

This assay has as its target full length NS3/4a (Hepatitis C virus genotype 1b (isolate BK) (HCV), UniProt P26663). Description: NS3 Protease Assay (Example A), FRET-based. The assay is classed as biochemical. The settings on record: for IC50: HCV NS3 protease assay, full length NS3/4a, read-out: Assay A IC50 (μM) average; for pIC50: read-out: IC50 against the protease activity of the full length NS3/4a. Here is the method:
The HCV NS3 protease functions have been extensively studied and are considered as potential targets for antiviral therapy: see for example the many references listed in the introductory section of this application. Therefore, the activity of the compounds of the invention as anti-HCV agents was assessed using a full length HCV NS3 protease.
The protease activity of the full length NS3/4a was measured using a FRET-based assay utilizing a peptide substrate derived from the NS4A/B cleavage site (Anaspec) and labelled at one end with a quencher (QXL520) and at the other with a fluorophore (5-FAMsp). NS3/4a (produced in-house by literature methods) was incubated with test compounds and peptide substrate in 50 mM Tris pH8, 20 mM DTT, 1% CHAPS, 10% glycerol and 5% DMSO. The reaction was followed by monitoring the change in fluorescence on a Molecular Devices Gemini plate reader for 30 minutes at room temperature. Initial rates were calculated from the progress curves using SoftMax Pro (Molecular Devices). IC50 values were then calculated from replicate curves using Prism GraphPad software.

Setting [1] is: stated as IC50 less than 30 μM or at least 40% inhibition at a concentration of 100 μM.

Chain of full length NS3/4a (P26663 1027-1657): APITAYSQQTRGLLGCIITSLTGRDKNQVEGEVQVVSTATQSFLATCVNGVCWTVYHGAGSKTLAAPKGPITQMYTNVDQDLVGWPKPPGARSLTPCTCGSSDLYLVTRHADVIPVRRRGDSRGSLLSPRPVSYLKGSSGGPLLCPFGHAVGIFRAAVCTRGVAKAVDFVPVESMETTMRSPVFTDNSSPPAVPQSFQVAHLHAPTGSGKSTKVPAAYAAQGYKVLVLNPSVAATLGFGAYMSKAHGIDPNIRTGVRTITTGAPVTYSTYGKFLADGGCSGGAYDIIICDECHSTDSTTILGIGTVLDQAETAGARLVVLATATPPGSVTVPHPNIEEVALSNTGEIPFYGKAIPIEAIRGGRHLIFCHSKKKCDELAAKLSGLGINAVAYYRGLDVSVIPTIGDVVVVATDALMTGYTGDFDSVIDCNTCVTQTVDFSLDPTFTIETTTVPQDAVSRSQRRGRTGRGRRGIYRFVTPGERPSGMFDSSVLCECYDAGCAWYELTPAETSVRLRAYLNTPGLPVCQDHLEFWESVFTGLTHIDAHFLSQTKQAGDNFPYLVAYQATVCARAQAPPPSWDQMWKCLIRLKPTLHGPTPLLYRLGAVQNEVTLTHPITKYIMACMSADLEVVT

For orientation: IC50 means the concentration needed to halve the response being measured. Take `CC[C@H](N)c1ccc(Cl)c(C(=O)c2ccc(N)nc2)c1F` [Example 31, 5-({3-[(1S)-1-aminopropyl]-6-chloro-2-fluorophenyl}carbonyl)pyridin-2-amine]: the IC50 turned out to be 0.18 µM and the pIC50 was over 6.00.
With `N#Cc1ccc(C(=O)c2c(Cl)ccc([C@H](N)C3CC3)c2F)cc1` [Example 32, 4-({3-[(R)-amino(cyclopropyl)methyl]-6-chloro-2-fluorophenyl}carbonyl)benzonitrile], the IC50 came out at 0.058 µM and the pIC50 was over 6.00.
For `N[C@@H](c1ccc(Cl)c(C(=O)c2ccncc2)c1F)C1CC1` [Example 33, (R)-{4-chloro-2-fluoro-3-[(pyridin-4-yl)carbonyl]phenyl}(cyclopropyl)methanamine], the IC50 worked out at 0.71 µM and the pIC50 is over 6.00.
As a reminder, the inhibition is the percentage by which the read-out fell short of the control. `CC[C@@H](N)c1ccc(Cl)c(C(=O)c2ccc(C#N)nc2)c1F` [Example 34, 5-({3-[(1R)-1-aminopropyl]-6-chloro-2-fluorophenyl}carbonyl)pyridine-2-carbonitrile]: at 3 µM the inhibition was 55% and the pIC50 was 5.30 to 6.00.
For the compound `CC[C@@H](N)c1ccc(Cl)c(C(=O)c2ccc(N(C)C)nc2)c1F` [Example 35, 5-({3-[(1R)-1-aminopropyl]-6-chloro-2-fluorophenyl}carbonyl)-N,N-dimethylpyridin-2-amine], 10 µM produced 30% inhibition.
Regarding `CC[C@@H](N)c1ccc(Cl)c(C(=O)c2ccc(NC)nc2)c1F` [Example 36, 5-({3-[(1R)-1-aminopropyl]-6-chloro-2-fluorophenyl}carbonyl)-N-methylpyridin-2-amine], the IC50 is 0.71 µM and the pIC50 is over 6.00.
Taken in the same sequence, the figures for `CC[C@@H](N)c1ccc(Cl)c(C(=O)c2ccc(-n3cccn3)nc2)c1F` [Example 37, (1R)-1-(4-chloro-2-fluoro-3-{[6-(1H-pyrazol-1-yl)pyridin-3-yl]carbonyl}phenyl)propan-1-amine] were 0.49 µM and over 6.00.
For `CC[C@@H](N)c1ccc(Cl)c(C(=O)c2ccc(=O)[nH]c2)c1F` [Example 38, 5-({3-[(1R)-1-aminopropyl]-6-chloro-2-fluorophenyl}carbonyl)-1,2-dihydropyridin-2-one], the IC50 was found to be 3.6 µM and the pIC50 is 5.30 to 6.00.
As for `CC[C@@H](N)c1ccc(C)c(C(=O)c2ccccc2)c1F` [Example 39, (1R)-1-(3-benzoyl-2-fluoro-4-methylphenyl)propan-1-amine], the IC50 was found to be 0.73 µM and the pIC50 was over 6.00.
Taken in the same sequence, the figures for `CC[C@@H](N)c1ccc(OC)c(C(=O)c2ccccc2)c1F` [Example 40, (1R)-1-(3-benzoyl-2-fluoro-4-methoxyphenyl)propan-1-amine] were 0.84 µM and over 6.00.
For `CC[C@@H](N)c1ccc(Cl)c(C(=O)c2cc[n+]([O-])cc2)c1F` [Example 42, [3-((R)-1-Amino-propyl)-6-chloro-2-fluoro-phenyl]-(1-oxy-pyridin-4-yl)-methanone] the same measures were 0.53 µM and over 6.00.
For `CC[C@@H](N)c1ccc(F)c(C(=O)c2ccccc2)c1F` [Example 43, (1R)-1-(3-benzoyl-2,4-difluorophenyl)propan-1-amine] the same measures were 0.74 µM and over 6.00.
The compound `CC[C@@H](N)c1ccc(O)c(C(=O)c2ccccc2)c1F` [Example 44, 4-[(1R)-1-aminopropyl]-2-benzoyl-3-fluorophenol] returned an inhibition at 100 µM (@ 100 uM) of 30%.
For `CC[C@@H](N)c1ccc(Cl)c(C(=O)c2cncc(N)c2)c1F` [Example 45, 5-({3-[(1R)-1-aminopropyl]-6-chloro-2-fluorophenyl}carbonyl)pyridin-3-amine], 10 µM produced 50% inhibition. Moreover, the pIC50 under setting [1] was over 4.52.
In the case of `CC[C@@H](N)c1ccc(Cl)c(C(=O)c2ccc(-n3cc(CO)cn3)nc2)c1F` [Example 46, {1-[5-({3-[(1R)-1-aminopropyl]-6-chloro-2-fluorophenyl}carbonyl)pyridin-2-yl]-1H-pyrazol-4-yl}methanol], the inhibition at 10 µM amounted to 64%. For the same compound, the pIC50 under setting [1] is over 4.52.
On to `Nc1ccc(C(=O)c2c(Cl)ccc([C@H](N)C3CC3)c2F)cn1` [Example 47, 5-({3-[(R)-amino(cyclopropyl)methyl]-6-chloro-2-fluorophenyl}carbonyl)pyridin-2-amine], for which the half-inhibitory concentration (IC50) turned out to be 0.18 µM and the pIC50 was over 6.00.
With `CC[C@@H](N)c1ccc(Cl)c(C(=O)c2ccc(COC(C)=O)cc2)c1F` [Example 49, [4-({3-[(1R)-1-aminopropyl]-6-chloro-2-fluorophenyl}carbonyl)phenyl]methyl acetate], the IC50 was found to be 0.15 µM and the pIC50 was over 6.00.
Consider `CC[C@@H](N)c1ccc(Cl)c(C(=O)c2ccc(CO)cc2)c1F` [Example 50, [4-({3-[(1R)-1-aminopropyl]-6-chloro-2-fluorophenyl}carbonyl)phenyl]methanol], for which the IC50 was determined as 0.21 µM and the pIC50 is over 6.00.
Turning to `CC[C@@H](N)c1ccc(Cl)c(C(=O)c2cnc(SC)nc2)c1F` [Example 51, (1R)-1-(4-chloro-2-fluoro-3-{[2-(methylsulfanyl)pyrimidin-5-yl]carbonyl}phenyl)propan-1-amine], the inhibition at 3 µM was 44%. The pIC50 under setting [1] was over 4.52.
In the case of `CC[C@@H](N)c1ccc(Cl)c(C(=O)c2ccnc(N)c2)c1F` [Example 52, 4-({3-[(1R)-1-aminopropyl]-6-chloro-2-fluorophenyl}carbonyl)pyridin-2-amine], the IC50 turned out to be 0.77 µM and the pIC50 is over 6.00.
Consider `CC[C@@H](N)c1ccc(Cl)c(C(=O)c2cccc(CO)c2)c1F` [Example 54, [3-({3-[(1R)-1-aminopropyl]-6-chloro-2-fluorophenyl}carbonyl)phenyl]methanol], for which the IC50 was 0.14 µM and the pIC50 was over 6.00.
For the compound `CC[C@@H](N)c1ccc(Cl)c(C(=O)c2cn[nH]c2)c1F` [Example 55, (1R)-1-{4-chloro-2-fluoro-3-[(1H-pyrazol-4-yl)carbonyl]phenyl}propan-1-amine], the IC50 was 4.4 µM and the pIC50 was 5.30 to 6.00.
Consider `Nc1cnc(C(=O)c2c(Cl)ccc([C@H](N)C3CC3)c2F)cn1` [Example 56, 5-({3-[(R)-amino(cyclopropyl)methyl]-6-chloro-2-fluorophenyl}carbonyl)pyrazin-2-amine], for which the 50% inhibitory concentration (IC50) was 0.6 µM and the pIC50 was over 6.00.
For the compound `CC[C@@H](N)c1ccc(Cl)c(C(=O)c2cnc(NC)cn2)c1F` [Example 57, 5-({3-[(1R)-1-aminopropyl]-6-chloro-2-fluorophenyl}carbonyl)-N-methylpyrazin-2-amine], the IC50 came to 4.6 µM and the pIC50 is 5.30 to 6.00.
As for `CC[C@@H](N)c1ccc(Cl)c(C(=O)c2ccc3c(n2)NC(=O)CO3)c1F` [Example 58, 6-({3-[(1R)-1-aminopropyl]-6-chloro-2-fluorophenyl}carbonyl)-2H,3H,4H-pyrido[3,2-b][1,4]oxazin-3-one], the inhibition at 10 µM amounted to 31%.
With `CC[C@@H](N)c1ccc(Cl)c(C(=O)c2ccc3c(c2)OCC(=O)N3)c1F` [Example 60, 7-({3-[(1R)-1-Aminopropyl]-6-chloro-2-fluorophenyl}-carbonyl)-3,4-dihydro-2H-1,4-benzoxazin-3-one], the IC50 was 0.55 µM and the pIC50 was over 6.00.
On to `Nc1ccc(C(=O)c2c(Cl)ccc([C@H](N)C3CC3)c2F)nc1` [Example 61, 6-({3-[(R)-amino(cyclopropyl)methyl]-6-chloro-2-fluorophenyl}carbonyl)pyridin-3-amine], for which the IC50 is 1.2 µM and the pIC50 was 5.30 to 6.00.
As to `N#Cc1ccc(C(=O)c2c(Cl)ccc([C@H](N)C3CC3)c2F)nc1` [Example 62, 6-({3-[(R)-amino(cyclopropyl)methyl]-6-chloro-2-fluorophenyl}carbonyl)pyridine-3-carbonitrile], the IC50 was found to be 0.32 µM and the pIC50 is over 6.00.
Compound `CC[C@@H](N)c1ccc(Cl)c(C(=O)c2ccc([N+](=O)[O-])c(C)c2)c1F` [Example 64, (1R)-1-{4-chloro-2-fluoro-3-[(3-methyl-4-nitrophenyl)carbonyl]phenyl}propan-1-amine] displayed an inhibition at 0.1 µM (@ 0.1 uM) of 44%.
Turning to `CC[C@@H](N)c1ccc(Cl)c(C(=O)c2ccc3c(c2)OCCN3)c1F` [Example 65, (1R)-1-{4-chloro-3-[(3,4-dihydro-2H-1,4-benzoxazin-7-yl)carbonyl]-2-fluorophenyl}propan-1-amine], the IC50 was found to be 0.16 µM.
`CCC[C@@H](N)c1ccc(Cl)c(C(=O)c2ccc(N)nc2)c1F` [Example 66, 5-({3-[(1R)-1-aminobutyl]-6-chloro-2-fluorophenyl}carbonyl)pyridin-2-amine]: the IC50 stood at 0.2 µM.
For the compound `C=CC[C@@H](N)c1ccc(Cl)c(C(=O)c2ccc(N)nc2)c1F` [Example 67, 5-({3-[(1R)-1-aminobut-3-en-1-yl]-6-chloro-2-fluorophenyl}carbonyl)pyridin-2-amine], the IC50 is 0.37 µM.
As to `N[C@@H](c1ccc(Cl)c(C(=O)c2ccc(CO)cc2)c1F)C1CC1` [Example 68, [4-({3-[(R)-amino(cyclopropyl)methyl]-6-chloro-2-fluorophenyl}-carbonyl)phenyl]methanol hydrochloride], the IC50 was found to be 0.21 µM.
